Values quoted from earlier work, collected in patent publication US6495121B2, “Chewing gum containing dipetide sweetener with lengthened and improved flavor” (Holland Sweetner Company V.O.F., priority 1996, dated 2002).
Where a SMILES comes first, the peptide text is derived from it.

Conditions: relative to sucrose

| Compound | sweetening power |
| --- | --- |
| COC(=O)[C@H](Cc1ccccc1)NC(=O)[C@@H](N)CC(=O)O [Aspartame, α-L-aspartyl-L-phenylalaninemethylester] (H-Asp-Phe-OMe) | approximately 200 × that of sucrose |
| C[C@@H](NC(=O)[C@@H](N)CC(=O)O)C(=O)NC1C(C)(C)SC1(C)C.O [Alitame, L-α-aspartyl-n-(2,2,4,4-tetramethyl-3-thietanyl)-D-alanineamidehydrate] | approximately 2000 × that of sucrose |
